Here are results for 9 compounds from patent US20070254323A1, “Malachite green derivatives for immunoassay reagents to detect malachite green” (priority 2006, published 2007).

The subject of series [1] is anti-Malachite Green antibodies. The series can be described thus: competitive ELISA: sensitivity and specificity of the produced anti-Malachite Green antibodies. It counts as binding, rabbit. Particulars: for Cross-reactivities / Sensitivity: competitive ELISA; for Cross-reactivities: Malachite Green = 100; for Sensitivity: produced anti-Malachite Green antibodies; for level detectable by the antibodies: competitive inhibition ELISA. As for the experimental part: In accordance with this embodiment, the diluted antiserum is added to a Malachite Green Chromatic conjugate-coated solid substrate such as the wells of an assay plate, together with a range of concentrations of free Malachite Green Chromatic as a competitor. Following incubation and washing, bound antibody in the wells is determined. Percent inhibition may be calculated as (1−B/B0)×100 where B is the optical density (OD) of a well with a competitor and B0 is the mean OD of the wells without competitor (control). […] However, for even greater accuracy, the affinity may be alternatively measured at 50% inhibition (IC50). […] Detection of bound antibody may be accomplished by addition of enzyme-labeled anti-immunoglobulin antibodies followed by enzyme substrate. Horseradish peroxidase and its substrate TMB are preferred enzyme/substrate labels. However, it is understood that other enzyme/substrate labels or non-enzyme labels such as radiolabels or chromophores may also be used.
Two female New Zealand White Rabbits, 8 weeks old, were initially immunized by intraperitoneal injection with 0.2 mg of Malachite Green-KLH conjugate as prepared in EXAMPLE 1 mixed with complete Freund's adjuvant. Five booster immunizations were administered at 15-day intervals using the antigen. Blood was collected 7 to 10 days after the last booster immunization in order to check for antibody titers. Titers were checked using both indirect ELISA and competitive ELISA that employed Malachite Green Chromatic-BSA conjugate as the coating antigen and free Malachite Green Chromatic as competitor. […] A typical competitive ELISA procedure is described below: • (1). In the Malachite Green Chromatic-BSA coated 96-well plate, add 50 μL of negative control and each Malachite Green Chromatic standard (1, 5, 10, 25, 50, 100 ng/mL) in duplicate into different wells; add 50 μL of each sample in duplicate into different sample wells. • (2). Add 100 μL of diluted Malachite Green Antibody #1 and mix well by gently tapping the edge of the plate for 10 seconds. • (3). Incubate the plate for 30 min at 37° C. or 1 hr at room temperature (15-25° C.). • (4). Wash the plate 3 times with 250 μL 1×PBS. After the last wash, gently slap the plate dry on paper towels. • (5). Add 150 μL of HRP Goat-against Rabbit antibody conjugate solution. Incubate the plate for 30 min at 37° C. or 1 hr at room temperature (15-25° C.). • (6). Wash the plate 3 times with 250 μL 1×PBS. After the last wash, gently slap the plate dry on paper towels. • (7). Add 100 μL of TMB substrate. • (8). Time the reaction immediately after adding the substrate; mix the solution by gently tapping the edge of the plate. • (9). After incubating for 15 min at room temperature, add 100 μL of 1 M H2SO4 to stop the enzyme reaction before reading the plate at 450 nm.

For series [2] the following is noted: in fish; cited from earlier work.
The subject of series [3] is Leukomalachite Green antibody. Particulars: Randox antibody raised against Leucomalachite Green immunogen; cited from earlier work.

In series [1], `CN(C)c1ccc(C(=C2C=CC(=[N+](C)C)C=C2)c2ccc(N(C)C)cc2)cc1` [Crystal Violet] had a Cross-reactivities of 42% and a Sensitivity of 10 ng/mL.
For the compound `O=C1OCCN1/N=C/c1ccc([N+](=O)[O-])o1` [Furazolidone], in series [1], the Sensitivity is given as >10,000 ng/ml.
As for `CN(C)c1ccc(C(c2ccccc2)c2ccc(N(C)C)cc2)cc1` [Leucomalachite Green], in series [1], the Cross-reactivities was 1%, the Sensitivity stood at 500 ng/mL and the “level detectable by the antibodies” value is reported as 0.5 ng/mL.
With `Cc1cc(C)nc(NS(=O)(=O)c2ccc(N)cc2)n1` [Sulfumethazine], in series [1], the Cross-reactivities is <0.01% and the Sensitivity is >10,000 ng/ml.
In the same order, the values of `CN(C)c1ccc(C(c2ccc(N(C)C)cc2)c2ccc(N(C)C)cc2)cc1` [Leucocrystal Violet] are <0.01% and 5000 ng/mL.
In the same order, the values of `O=C(N[C@H](CO)[C@H](O)c1ccc([N+](=O)[O-])cc1)C(Cl)Cl` [Chloramphenicol] are <0.01% and >10,000 ng/ml.
In the case of `CC(C)(C)NCC(O)c1cc(Cl)c(N)c(Cl)c1` (centres unmarked) [Clenbuterol], in series [1], the Cross-reactivities was <0.01% and the Sensitivity is reported as >10,000 ng/ml.
Consider `CN(C)c1ccc(C(=C2C=CC(=[N+](C)C)C=C2)c2ccccc2)cc1` [Malachite Green], for which the “converted into Leucomalachite Green” value in series [2] was ~80%. In series [1], this compound returned a Cross-reactivities of 100% and a Sensitivity of 1 ng/mL. Moreover, the test sensitivity in series [1] (produced antibodies, Table 1 summary) is on record as 1 ppb. The cross reactivity in series [3] is reported as 26.8%.
In the case of `CN(C)c1ccc(C(O)(c2ccccc2)c2ccc(N(C)C)cc2)cc1` [Carbinol], the “level detectable by the antibodies” value in series [1] is 0.5 ng/mL.
